Reference: US20130102624A1 (priority 2011, published 2013)

Tests used:
[1] = urinary excretion of thiamine metabolites TMA and PMA and TMA/PMA ratio (LC-MS/MS of urine)
[2] = in vivo; cited from earlier work

Urinary excretion rate at lowest point during fasting ([1]; human)	SMILES	TMA/PMA ratio relative to its typical fasting value (transient reduction) ([1]; consumption of thiamine after a period of induced deficiency)	Ratio of TMA to PMA (TMA/PMA) in urine ([1]; human, following consumption of thiamine (100 mg) after fast and sucrose)	Oral bioavailability [2]
–	Cc1ncc(C[n+]2csc(CCO)c2C)c(N)n1 [thiamine]	less than 20%	0.12	poor
0.06 nmol/h	Cc1ncsc1CCO [TMA]	–	–	–
0.07 nmol/h	Cc1ncc(CO)c(N)n1 [PMA]	–	–	–
